The compounds below were run against EP2 receptor (Homo sapiens, UniProt P43116) (assay: TR-FRET cAMP).
Assay type: cell-based

Sequence of EP2 receptor (P43116 whole entry): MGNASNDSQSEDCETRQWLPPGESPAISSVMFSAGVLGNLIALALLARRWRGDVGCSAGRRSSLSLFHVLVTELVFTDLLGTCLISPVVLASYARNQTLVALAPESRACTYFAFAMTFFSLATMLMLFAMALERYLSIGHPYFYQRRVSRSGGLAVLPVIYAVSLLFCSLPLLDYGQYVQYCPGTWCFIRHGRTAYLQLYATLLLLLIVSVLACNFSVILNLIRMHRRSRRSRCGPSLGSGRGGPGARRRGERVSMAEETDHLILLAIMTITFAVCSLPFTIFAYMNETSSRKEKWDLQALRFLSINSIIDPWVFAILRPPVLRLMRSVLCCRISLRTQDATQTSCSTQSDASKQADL

Structure (SMILES) | TR-FRET cAMP; fold leftward shift of PGE2 EC50 at 20 μM compound
CC(C)Sc1cc(N2CCOCC2)nc(-c2ccc(Cl)cc2)n1 [CID852308] | 2.4 fold shift of PGE2 EC50 at 20 μM
CC(C)Sc1cc(N2CCOCC2)nc(-c2ccccc2)n1 [CID852313] | 2.4 fold shift of PGE2 EC50 at 20 μM
FC(F)(F)c1cc(-c2ccccc2)nc(N2CCOCC2)n1 [CID891729, 4-[4-phenyl-6-(trifluoromethyl)pyrimidin-2-yl]morpholine] | 2.4 fold shift of PGE2 EC50 at 20 μM
COc1ccc(-c2cc(C(F)(F)F)nc(N3CCOCC3)n2)cc1OC [CID2992168, 4-[4-(3,4-dimethoxyphenyl)-6 (trifluoromethyl)pyrimidin-2-yl]morpholine] | 2.7 fold shift of PGE2 EC50 at 20 μM

Next, values leading:

TR-FRET cAMP; fold leftward shift of PGE2 EC50 at 20 μM compound | Structure (SMILES)
4.3 fold shift of PGE2 EC50 at 20 μM | O=C(Nc1ccccc1N1CCCCC1)c1ccc(F)cc1 [CID890517, 4-fluoro-N-(2-piperidin-1-ylphenyl)benzamide]
2.5 fold shift of PGE2 EC50 at 20 μM | CC1CCN(c2ccccc2NC(=O)c2ccc(F)cc2)CC1 [CID953673, 4-fluoro-N-(2-(4-methylpiperidin-1-yl)phenyl)benzamide]
2.5 fold shift of PGE2 EC50 at 20 μM | O=C(Nc1cccc(Cl)c1N1CCCCC1)c1ccc2c(c1)OCCO2 [CID1254488]
3.3 fold shift of PGE2 EC50 at 20 μM | Cc1ccccc1C(=O)Nc1ccccc1N1CCCCC1 [CID2340325, 2-methyl-N-(2-piperidin-1-ylphenyl)benzamide]
